Entries after “also recorded” stand apart in the source; their conditions may differ. Where two headings read alike, the source gives them in different places.
What was measured:
[1] = system: MDA-MB-435 cancer cell line; assay: SRB antiproliferative assay, MDA-MB-435; type: cell-based, human
pStat3^Tyr705 = assay: Immunoblotting of phosphorylated Stat3 in cancer cells; type: cell-based, human; settings: for persistence of pStat3 inhibition post treatment: DU145 and A549, after 18 h treatment and drug removal; for inhibition of Stat3 tyrosine (705) phosphorylation (pStat3): DU145 and A549 cells with constitutively active Stat3, 18 h; for concentrations at which pSTAT3 is inhibited: cells with persistent Stat3 activation
Description: (§1) Whole cell lysates were prepared by incubation of harvested, trypsinised cells with CelLytic™ lysis buffer (Sigma-Aldrich) supplemented with 1× protease and 1× phosphatase inhibitors (Roche). Protein quantification was carried out using a protein assay kit (Bio-Rad). 40 μg of the lysates were denatured by heating for 5 min at 95° C. in sample buffer containing 100 mM Tris-Cl (pH 6.8), 4% SDS, 10% 2-mercaptoethanol, 20% glycerol, and 0.02% bromophenol blue. Precision Plus Protein Dual colour standards (Bio-Rad) were used as a molecular weight reference. For the detection of STAT3, pSTAT3, α/β tubulin, cleaved PARP, Bcl-2, Bcl-xL, FANCD2, BRCA1, EME1 and MUS81, proteins were separated on a NuPAGE 7% Tris-acetate gel (Life Technologies) and subsequently transferred to polyvinylidene difluoride membranes (Immobilon®-P transfer membrane; Millipore). […] Membranes were blocked for 1 h at ambient temperature in a blocking buffer containing 5% w/v Bovine Serum Albumin (BSA; Sigma-Aldrich) in 1×TBS, 0.1% Tween-20. All proteins were identified by incubation in a 1:1000 dilution of the respective polyclonal antibodies (Cell signaling) in blocking buffer overnight at 4° C. and subsequent incubation for 1 h with an anti-rabbit or anti-mouse secondary antibody (Cell signalling) at a dilution of 1:1000. The α/β tubulin (1:2000; Cell Signaling) and the anti-phospho-histone H2AX Antibody (1:500; Millipore) were used in the denoted dilutions. Antibody binding was visualized by enhanced chemiluminescence (Amersham) on autoradiography film (Kodak-X-Omat). Alternatively Images were captured by the GelDoc-It Imaging System Fusion Fx7 (Vilber Lourmat, Germany).
as §1, with “Immunoblotting. Whole” for “Whole”, “CelLytic™ M” for “CelLytic™”, “pSTAT3, a/0” for “pSTAT3, α/β”, “in 1×TBS” for “in 1×TBS,”, “(Cell signalling)” for “(Cell signaling)”

DU145 cells = assay: SRB growth inhibition and combination index with cisplatin, DU145; type: cell-based
Description: The affected fractions were calculated from the SRB or MTT assay absorbance values and were registered to derive the respective CI values and isobolograms. A CI value of less than 1 (one) indicates synergy.
(§2) The SRB assay was used to assess cell growth inhibition by IE-8 alone and in combination with cisplatin. […] For combination studies drug treatments were sequential with IE-8 applied first followed by cisplatin for 1 h. […] Absorbance was read at 540 nm and results were normalized to untreated controls. For analysis of GC50 values and statistical significance, non-linear regression analysis with a comparison of fits was performed with the GraphPad Prism 6.0 software.
as §2, with “Drug Combination studies. Sulforhodamine B (SRB) Cell Growth Inhibition Assay. The” for “The”, “8 h” for “IE-8”

L1210 (lymphoma) cells = assay: MTT cytotoxicity assay, L1210 cells

Row | Compound | IC50 ([1]; 48 h exposure) | persistence of pStat3 inhibition post treatment (pStat3^Tyr705) | inhibition of Stat3 tyrosine (705) phosphorylation (pStat3) (pStat3^Tyr705) | concentrations at which pSTAT3 is inhibited (pStat3^Tyr705; 18 h) | combination index (CI) with cisplatin (DU145 cells; IE-8 18 h then cisplatin 1 h, fixed ratio 1:50) | IC50 (L1210 (lymphoma) cells; read-out: IC50 (μM) L1210, 72 h exposure, MTT, mean of three independent experiments) | IC50 ([1]; Homo sapiens, MDA-MB-435, 48 h exposure) | inhibition of IL-6 induced pStat3 (pStat3^Tyr705; A2780-cisplatin resistant cells, 18 h) | pStat3 inhibition after acute treatment (pStat3^Tyr705; DU145, 5 μM, 1 h) | inhibition of constitutively active Stat3 (pStat3) (pStat3^Tyr705; HCT116-oxaliplatin resistant cells, 18 h) | pStat3 inhibition in 3D spheroids (pStat3^Tyr705; HCT116-oxaliplatin resistant or A2780-cisplatin resistant spheroids) | combination index (CI) with cisplatin (DU145 cells; 5 μM IE-8 1 h then cisplatin 1 h, non-fixed ratio) | IC50 (L1210 (lymphoma) cells; Mus musculus, L1210, 72 h, read-out: IC50 (μM) L1210, 72 h exposure, MTT, mean of three independent experiments)
1 | 3,5-Di(3,4,5-trimethoxybenzylidene)-1-phenylpiperidin-4-one [IE-8] | 0.15 µM | at least 24 h | efficiently inhibits | > 1 μM | > 1 | ~0.3 µM | – | – | – | – | – | – | –
2 | COc1cc(/C=C2\CN(c3ccccc3)C/C(=C\c3cc(OC)c(OC)c(OC)c3)C2=O)cc(OC)c1OC [IE-8, 3,5-Di(3,4,5-trimethoxybenzylidene)-1-phenylpiperidin-4-one] | – | at least 24 h | inhibits pStat3^Tyr705 levels without affecting the total Stat3 levels; also recorded: efficiently inhibited | > 1 μM | – | – | 0.15 µM | the most potent inhibitor in this series; also recorded: efficiently inhibited | sufficient to inhibit pStat3 | the most potent among these inhibitors; also recorded: efficiently inhibited the constitutively active Stat3 | inhibition of pStat3; also recorded: efficiently inhibited | below 1 | 0.36 µM
